{
  "source": "EPA's ToxRefDB 2",
  "key": {"[1]": {"system": "rat", "conditions": "Sub-acute repeat dose toxicity; sprague dawley; Oral; Gavage/Intubation; dose end: 28 day; group: systemic; systemic / in life observation / body weight / body weight gain + systemic / in life observation / clinical signs / alopecia + systemic / in…"}, "[2]": {"system": "rabbit", "conditions": "Prenatal developmental toxicity study, himalayan, Oral, Gavage/Intubation, dose end: 19 GD"}, "[3]": {"system": "rat", "conditions": "Prenatal developmental toxicity study, sprague dawley, Oral, Gavage/Intubation, dose end: 17 GD"}, "[4]": {"system": "dog", "conditions": "Sub-acute repeat dose toxicity, beagle, Oral, Capsule, dose end: 4 week, group: systemic"}, "[5]": {"system": "rat", "conditions": "Prenatal developmental toxicity study, sprague dawley, Oral, Gavage/Intubation, dose end: 17 GD", "remark": "listed apart in the source"}, "[6]": {"system": "dog", "conditions": "Chronic toxicity, beagle, Oral, Gavage/Intubation, dose end: 1 year, group: systemic"}, "[7]": {"system": "rat", "conditions": "Fertility (Segment I); sprague dawley; Oral; Gavage/Intubation; dose end: 7 GD; group: parental; systemic / in life observation / body weight / body weight gain + systemic / in life observation / clinical signs / motor activity + …"}, "[8]": {"system": "rabbit", "conditions": "Prenatal developmental toxicity study, himalayan, Oral, Gavage/Intubation, dose end: 19 GD", "remark": "listed apart in the source"}, "[9]": {"system": "rat", "conditions": "Chronic toxicity, sprague dawley, Oral, Gavage/Intubation, dose end: 6 month, group: systemic"}, "[10]": {"system": "dog", "conditions": "Chronic toxicity, beagle, Oral, Gavage/Intubation, dose end: 6 month, group: systemic"}, "[11]": {"system": "mouse", "conditions": "Carcinogenicity, b6c3f1, Oral, Gavage/Intubation, dose end: 60 week, group: systemic"}, "[12]": {"system": "rat", "conditions": "Carcinogenicity; other; Oral; Gavage/Intubation; dose end: 78 week; group: systemic; systemic / in life observation / body weight / body weight gain + systemic / pathology microscopic / kidney / nephropathy + systemic / …"}, "[13]": {"conditions": "group: developmental, systemic / in life observation / body weight / fetal weight"}, "[14]": {"conditions": "group: maternal, systemic / in life observation / body weight / body weight + systemic / in life observation / body weight / body weight gain + systemic / in…"}, "[15]": {"conditions": "group: developmental, developmental / developmental malformation / bone / [other] + developmental / developmental malformation / bone / absent + developmental / …"}, "[16]": {"conditions": "group: maternal, systemic / in life observation / body weight / body weight gain + systemic / in life observation / food consumption / food consumption + …"}, "[17]": {"conditions": "systemic / in life observation / body weight / body weight gain + systemic / in life observation / food consumption / food consumption + …"}, "[18]": {"conditions": "systemic / pathology microscopic / larynx / inflammation"}, "[19]": {"conditions": "group: maternal, reproductive / reproductive performance / postimplantation loss / postimplantation loss + reproductive / reproductive performance / …"}, "[20]": {"conditions": "systemic / in life observation / body weight / body weight gain + systemic / pathology microscopic / eye / opacity"}, "[21]": {"conditions": "systemic / in life observation / clinical signs / convulsions + systemic / in life observation / clinical signs / general pallor + systemic…"}, "[22]": {"conditions": "group: maternal, systemic / in life observation / food consumption / food consumption"}, "[23]": {"conditions": "group: maternal, systemic / in life observation / food consumption / food consumption + systemic / in life observation / body weight / body weight + systemic…"}, "[24]": {"conditions": "systemic / in life observation / clinical signs / convulsions + systemic / in life observation / mortality / mortality + systemic / …"}, "[25]": {"conditions": "systemic / pathology microscopic / adrenal gland / dilatation + systemic / pathology microscopic / thyroid gland / hyperplasia + systemic / …"}, "[26]": {"conditions": "systemic / in life observation / body weight / body weight gain + systemic / in life observation / clinical signs / vomitting"}, "[27]": {"conditions": "systemic / in life observation / body weight / body weight gain + systemic / in life observation / clinical signs / vomitting + systemic / …"}, "[28]": {"conditions": "systemic / pathology microscopic / kidney / nephropathy"}, "[29]": {"conditions": "systemic / pathology microscopic / kidney / nephropathy + systemic / pathology microscopic / stomach / squamous cell carcinoma + systemic / …"}},
  "data": [
    {"smiles": "O=C(Oc1ccc(Br)cc1)N1CCN2CCC1CC2", "values": [
      {"measurement": "LEL", "setting": "[1]", "value": 5, "unit": "mg/kg/day"},
      {"measurement": "LOAEL", "setting": "[1]", "value": 25, "unit": "mg/kg/day"},
      {"measurement": "NEL", "setting": "[1]", "value": "< 5", "unit": "mg/kg/day"},
      {"measurement": "NOAEL", "setting": "[1]", "value": 5, "unit": "mg/kg/day"},
      {"measurement": "LEL", "setting": "[2]; [13]", "value": 30, "unit": "mg/kg/day"},
      {"measurement": "LOAEL", "setting": "[2]; [13]", "value": "> 30", "unit": "mg/kg/day"},
      {"measurement": "NEL", "setting": "[2]; [13]", "value": 10, "unit": "mg/kg/day"},
      {"measurement": "NOAEL", "setting": "[2]; [13]", "value": "≥ 30", "unit": "mg/kg/day"},
      {"measurement": "LEL", "setting": "[2]; [14]", "value": 10, "unit": "mg/kg/day"},
      {"measurement": "LOAEL", "setting": "[2]; [14]", "value": "> 30", "unit": "mg/kg/day"},
      {"measurement": "NEL", "setting": "[2]; [14]", "value": 3, "unit": "mg/kg/day"},
      {"measurement": "NOAEL", "setting": "[2]; [14]", "value": "≥ 30", "unit": "mg/kg/day"},
      {"measurement": "LOAEL", "setting": "[3]; [15]", "value": 50, "unit": "mg/kg/day"},
      {"measurement": "NEL", "setting": "[3]; [15]", "value": 5, "unit": "mg/kg/day"},
      {"measurement": "NOAEL", "setting": "[3]; [15]", "value": 20, "unit": "mg/kg/day"},
      {"measurement": "LEL", "setting": "[3]; group: developmental, developmental / developmental malformation / bone / incomplete ossification", "value": 20, "unit": "mg/kg/day"},
      {"measurement": "LOAEL", "setting": "[3]; [16]", "value": 50, "unit": "mg/kg/day"},
      {"measurement": "NEL", "setting": "[3]; [16]", "value": 5, "unit": "mg/kg/day"},
      {"measurement": "NOAEL", "setting": "[3]; [16]", "value": 20, "unit": "mg/kg/day"},
      {"measurement": "LEL", "setting": "[3]; group: maternal, systemic / organ weight / uterus / nos", "value": 20, "unit": "mg/kg/day"},
      {"measurement": "LOAEL", "setting": "[4]; [17]", "value": "> 30", "unit": "mg/kg/day"},
      {"measurement": "NOAEL", "setting": "[4]; [17]", "value": "≥ 30", "unit": "mg/kg/day"},
      {"measurement": "LEL", "setting": "[4]; [18]", "value": 3, "unit": "mg/kg/day"},
      {"measurement": "NEL", "setting": "[4]; [18]", "value": "< 3", "unit": "mg/kg/day"},
      {"measurement": "LEL", "setting": "[5]; [13]", "value": 75, "unit": "mg/kg/day"},
      {"measurement": "LOAEL", "setting": "[5]; [13]", "value": "> 75", "unit": "mg/kg/day"},
      {"measurement": "NEL", "setting": "[5]; [13]", "value": 25, "unit": "mg/kg/day"},
      {"measurement": "NOAEL", "setting": "[5]; [13]", "value": "≥ 75", "unit": "mg/kg/day"},
      {"measurement": "LOAEL", "setting": "[5]; [19]", "value": "> 75", "unit": "mg/kg/day"},
      {"measurement": "NEL", "setting": "[5]; [19]", "value": 5, "unit": "mg/kg/day"},
      {"measurement": "NOAEL", "setting": "[5]; [19]", "value": "≥ 75", "unit": "mg/kg/day"},
      {"measurement": "LEL", "setting": "[5]; group: maternal, reproductive / reproductive performance / preimplantation loss / preimplantation loss + systemic / in life observation / body weight / body …", "value": 25, "unit": "mg/kg/day"},
      {"measurement": "LEL", "setting": "[6]; [20]", "value": 5, "unit": "mg/kg/day"},
      {"measurement": "NEL", "setting": "[6]; [20]", "value": "< 5", "unit": "mg/kg/day"},
      {"measurement": "LOAEL", "setting": "[6]; [21]", "value": "> 12.5", "unit": "mg/kg/day"},
      {"measurement": "NOAEL", "setting": "[6]; [21]", "value": "≥ 12.5", "unit": "mg/kg/day"},
      {"measurement": "LEL", "setting": "[7]", "value": 50, "unit": "mg/kg/day"},
      {"measurement": "LOAEL", "setting": "[7]", "value": 50, "unit": "mg/kg/day"},
      {"measurement": "NEL", "setting": "[7]", "value": 20, "unit": "mg/kg/day"},
      {"measurement": "NOAEL", "setting": "[7]", "value": 20, "unit": "mg/kg/day"},
      {"measurement": "LEL", "setting": "[8]; [13]", "value": 24, "unit": "mg/kg/day"},
      {"measurement": "LOAEL", "setting": "[8]; [13]", "value": "> 24", "unit": "mg/kg/day"},
      {"measurement": "NEL", "setting": "[8]; [13]", "value": 8, "unit": "mg/kg/day"},
      {"measurement": "NOAEL", "setting": "[8]; [13]", "value": "≥ 24", "unit": "mg/kg/day"},
      {"measurement": "LEL", "setting": "[8]; [22]", "value": 3, "unit": "mg/kg/day"},
      {"measurement": "NEL", "setting": "[8]; [22]", "value": "< 3", "unit": "mg/kg/day"},
      {"measurement": "LOAEL", "setting": "[8]; [23]", "value": "> 24", "unit": "mg/kg/day"},
      {"measurement": "NOAEL", "setting": "[8]; [23]", "value": "≥ 24", "unit": "mg/kg/day"},
      {"measurement": "LOAEL", "setting": "[9]; [24]", "value": 75, "unit": "mg/kg/day"},
      {"measurement": "NOAEL", "setting": "[9]; [24]", "value": 25, "unit": "mg/kg/day"},
      {"measurement": "LEL", "setting": "[9]; [25]", "value": 5, "unit": "mg/kg/day"},
      {"measurement": "NEL", "setting": "[9]; [25]", "value": "< 5", "unit": "mg/kg/day"},
      {"measurement": "LEL", "setting": "[10]; [26]", "value": 1.5, "unit": "mg/kg/day"},
      {"measurement": "NEL", "setting": "[10]; [26]", "value": "< 1.5", "unit": "mg/kg/day"},
      {"measurement": "LOAEL", "setting": "[10]; [27]", "value": "> 15", "unit": "mg/kg/day"},
      {"measurement": "NOAEL", "setting": "[10]; [27]", "value": "≥ 15", "unit": "mg/kg/day"}
    ]},
    {"smiles": "ClCC(Br)CBr", "note": "(centres undefined) [1,2-Dibromo-3-chloropropane]", "values": [
      {"measurement": "LOAEL", "setting": "[11]; [28]", "value": 110, "unit": "mg/kg/day"},
      {"measurement": "NOAEL", "setting": "[11]; [28]", "value": "< 110", "unit": "mg/kg/day"},
      {"measurement": "LEL", "setting": "[11]; [29]", "value": 110, "unit": "mg/kg/day"},
      {"measurement": "NEL", "setting": "[11]; [29]", "value": "< 110", "unit": "mg/kg/day"},
      {"measurement": "LEL", "setting": "[12]", "value": 15, "unit": "mg/kg/day"},
      {"measurement": "LOAEL", "setting": "[12]", "value": 15, "unit": "mg/kg/day"},
      {"measurement": "NEL", "setting": "[12]", "value": "< 15", "unit": "mg/kg/day"},
      {"measurement": "NOAEL", "setting": "[12]", "value": "< 15", "unit": "mg/kg/day"}
    ]}
  ]
}
